Reference: ChEMBL document CHEMBL1141294, “Renierosides, cerebrosides from a marine sponge Haliclona (Reniera) sp” (2007)

Assays:
Format in all cases: functional
Conditions in all cases: read-out: ED50 (the source's name)
XF498 = experiment: Cytotoxicity against human XF498 cells
HCT-15 = experiment: Cytotoxicity against human HCT15 cells
A549 = experiment: Cytotoxicity against human A549 cells
SK-OV-3 = experiment: Cytotoxicity against human SK-OV-3 cells
SK-MEL-2 = experiment: Cytotoxicity against human SK-MEL-2 cells

Measured: EC50

CCCCCC/C=C\CCCCCCCCCCCCCCCCC[C@@H](O)C(=O)N[C@@H](CO[C@@H]1O[C@H](CO)[C@@H](O)[C@H](O)[C@H]1O)[C@H](O)/C=C/CC/C=C(C)/C=C/CCCCCCC [RENIEROSIDE B3]
> 10 mg/L: all assays above

CCCCCCC/C=C/C=C/CC/C=C/[C@@H](O)[C@H](CO[C@@H]1O[C@H](CO)[C@@H](O)[C@H](O)[C@H]1O)NC(=O)[C@H](O)CCCCCCCCCCCCC/C=C\CCCCCCCC [RENIEROSIDE A3]
> 10 mg/L: all assays above

CCCCCCC/C=C/C=C/CC/C=C/[C@@H](O)[C@H](CO[C@@H]1O[C@H](CO)[C@@H](O)[C@H](O)[C@H]1O)NC(=O)[C@H](O)CCCCCCCCCCCCCC/C=C\CCCCCCCC [RENIEROSIDE A2]
> 10 mg/L: all assays above

CCCCCCC/C=C/C=C/CC/C=C/[C@@H](O)[C@H](CO[C@@H]1O[C@H](CO)[C@@H](O)[C@H](O)[C@H]1O)NC(=O)[C@H](O)CCCCCCCCCCCCCCCCCCCCCC [RENIEROSIDE A5]
> 10 mg/L: all assays above

CCCCCCC/C=C/C(C)=C/CC/C=C/[C@@H](O)[C@H](CO[C@@H]1O[C@H](CO)[C@@H](O)[C@H](O)[C@H]1O)NC(=O)[C@H](O)CCCCCCCCCCCCCC/C=C\CCCCCCCC [RENIEROSIDE B2]
> 10 mg/L: all assays above

CCCCCCC/C=C/C=C/CC/C=C/[C@@H](O)[C@H](CO[C@@H]1O[C@H](CO)[C@@H](O)[C@H](O)[C@H]1O)NC(=O)[C@H](O)CCCCCCCCCCCCCCCCCCCC [RENIEROSIDE A4]
> 10 mg/L: all assays above

CCCCCC/C=C\CCCCCCCCCCCCCCCCCC[C@@H](O)C(=O)N[C@@H](CO[C@@H]1O[C@H](CO)[C@@H](O)[C@H](O)[C@H]1O)[C@H](O)/C=C/CC/C=C/C=C/CCCCCCC [RENIEROSIDE A1]
> 10 mg/L: all assays above

CCCCCC/C=C\CCCCCCCCCCCCCCCCCC[C@@H](O)C(=O)N[C@@H](CO[C@@H]1O[C@H](CO)[C@@H](O)[C@H](O)[C@H]1O)[C@H](O)/C=C/CC/C=C(C)/C=C/CCCCCCC [RENIEROSIDE B1]
> 10 mg/L: all assays above
